Laboratory results taken from ChEMBL document CHEMBL1201862, “PubChem BioAssay data set” (2004).
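Each compound was tested at five concentrations against cells in 96-well plates for 48 hours. GI50 = concentration required for 50% inhibition of growth.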 Calls of active or inactive are those of the source. Rule as the data show it: active = GI50 up to about 1.1 µM and inactive = higher.

How the values were obtained:
Assay in all cases: growth of human tumour cells (NCI), 48 h
EKVX = test system: EKVX
CAKI-1 = test system: CAKI-1
CCRF-CEM = test system: CCRF-CEM
T47D = test system: T47D
HT-29 = test system: HT-29
LOX IMVI = test system: LOX IMVI
MDA-MB-231 = test system: MDA-MB-231
SF-295 = test system: SF-295
SNB-75 = test system: SNB-75
OVCAR-4 = test system: OVCAR-4
ACHN = test system: ACHN
MCF7 = test system: MCF7
TK-10 = test system: TK-10
A498 = test system: A498
HOP-92 = test system: HOP-92
BT-549 = test system: BT-549
786-0 = test system: 786-0
SK-MEL-28 = test system: SK-MEL-28
MOLT-4 = test system: MOLT-4
COLO 205 = test system: COLO 205

Structure (SMILES)	GI50 (EKVX)	GI50 (CAKI-1)	GI50 (CCRF-CEM)	GI50 (T47D)	GI50 (HT-29)	GI50 (LOX IMVI)	GI50 (MDA-MB-231)	GI50 (SF-295)	GI50 (SNB-75)	GI50 (OVCAR-4)	GI50 (ACHN)	GI50 (MCF7)	GI50 (TK-10)	GI50 (A498)	GI50 (HOP-92)	GI50 (BT-549)	GI50 (786-0)	GI50 (SK-MEL-28)	GI50 (MOLT-4)	GI50 (COLO 205)
C=C1C(=O)O[C@@H]2C[C@@H](C)[C@@H]3C=CC(=O)[C@@]3(C)[C@@H](OC(=O)CCCC(=O)O[C@H]3[C@@H]4C(=C)C(=O)O[C@@H]4C[C@@H](C)[C@@H]4C=CC(=O)[C@]43C)[C@H]12	0.0875 µM (active)	0.0323 µM (active)	< 0.01 µM (active)	0.0214 µM (active)	0.0352 µM (active)	0.0518 µM (active)	0.0284 µM (active)	0.989 µM (active)	0.113 µM (active)	0.0455 µM (active)	0.0266 µM (active)	0.0348 µM (active)	0.0682 µM (active)	0.181 µM (active)	0.034 µM (active)	0.0252 µM (active)	0.0171 µM (active)	0.0495 µM (active)	< 0.01 µM (active)	0.0197 µM (active)
O=C(O)/C=C/C=C/c1ccc2c(c1)OCO2 [PIPERIC ACID]	> 100 µM (inactive)	> 100 µM (inactive)		> 100 µM (inactive)	> 100 µM (inactive)	> 100 µM (inactive)	> 100 µM (inactive)	> 100 µM (inactive)	36.6 µM (inactive)	> 100 µM (inactive)	> 100 µM (inactive)	> 100 µM (inactive)	> 100 µM (inactive)	> 100 µM (inactive)	> 100 µM (inactive)	> 100 µM (inactive)	> 100 µM (inactive)	> 100 µM (inactive)	> 100 µM (inactive)	> 100 µM (inactive)
CC(C)(C)N/N=C(\C(=O)Nc1ccc([N+](=O)[O-])cc1[N+](=O)[O-])c1nc2ccc([N+](=O)[O-])cc2nc1O	> 100 µM (inactive)	> 100 µM (inactive)	98.9 µM (inactive)	36.3 µM (inactive)	> 100 µM (inactive)	58.7 µM (inactive)	> 100 µM (inactive)	31.5 µM (inactive)	> 100 µM (inactive)	33.3 µM (inactive)	> 100 µM (inactive)	79.6 µM (inactive)		> 100 µM (inactive)	> 100 µM (inactive)	> 100 µM (inactive)	> 100 µM (inactive)	> 100 µM (inactive)	35.2 µM (inactive)	24.5 µM (inactive)
Cn1c(=O)oc2cc(C(O)CN3CCN(Cc4ccccn4)CC3)c(Cl)cc21 (stereo not drawn)	> 100 µM (inactive)	> 100 µM (inactive)	> 100 µM (inactive)	> 100 µM (inactive)	> 100 µM (inactive)	> 100 µM (inactive)	> 100 µM (inactive)	> 100 µM (inactive)	77.3 µM (inactive)	> 100 µM (inactive)	> 100 µM (inactive)	> 100 µM (inactive)	> 100 µM (inactive)	> 100 µM (inactive)	> 100 µM (inactive)	> 100 µM (inactive)	> 100 µM (inactive)	> 100 µM (inactive)	> 100 µM (inactive)	> 100 µM (inactive)
Cc1c(-c2ccccc2)oc(=O)c2ccccc12	18.5 µM (inactive)	22.4 µM (inactive)	18.4 µM (inactive)	30.5 µM (inactive)	15.5 µM (inactive)	19.1 µM (inactive)	16.7 µM (inactive)	18.3 µM (inactive)	12.4 µM (inactive)	17.5 µM (inactive)	26.2 µM (inactive)	20.4 µM (inactive)	23.6 µM (inactive)	> 10 µM (inactive)	11.8 µM (inactive)	13.7 µM (inactive)	24.2 µM (inactive)	19.4 µM (inactive)	11 µM (inactive)	16 µM (inactive)
CC(C)(N)CO[C@H]1C[C@H]2CC[C@@]1(C)C2(C)C	28.3 µM (inactive)	20.2 µM (inactive)	25.2 µM (inactive)	16 µM (inactive)	12.4 µM (inactive)	17.2 µM (inactive)	17.8 µM (inactive)	19.9 µM (inactive)	14.2 µM (inactive)	23.1 µM (inactive)	34.9 µM (inactive)	19.4 µM (inactive)	20 µM (inactive)	27.2 µM (inactive)	14.2 µM (inactive)	23.1 µM (inactive)	16.2 µM (inactive)	12.3 µM (inactive)	26.3 µM (inactive)	16.1 µM (inactive)
COC1=CC(=O)C2=C(C1=O)[C@H]1CC[C@]3(C)C(=O)CC[C@H]3[C@@H]1CC2	16.7 µM (inactive)	25.8 µM (inactive)	3.62 µM (inactive)	22.8 µM (inactive)	26.3 µM (inactive)	18.6 µM (inactive)	4 µM (inactive)	66.7 µM (inactive)	> 100 µM (inactive)	15.8 µM (inactive)	27.3 µM (inactive)	19 µM (inactive)	> 100 µM (inactive)	> 100 µM (inactive)	19.8 µM (inactive)	19.4 µM (inactive)	24.1 µM (inactive)	78 µM (inactive)	4.31 µM (inactive)	39.8 µM (inactive)
